Assay results from patent US9403850B2, “Beta-lactamase inhibitors” (priority 2013, dated 2016).
pIC50: −log10 of the molar value.

Key:
[1] = system: P. aeruginosa Ps296 expressing VIM-2; test: Broth microdilution MIC assay, partner meropenem; assay type: cell-based; settings: Pseudomonas aeruginosa, read-out: MIC of Exemplary Compounds in presence of fixed β-lactams, Fixed Mero, P. aerug. Ps296 VIM-2
[2] = system: E. coli ESBL4 expressing CTX-M-15; test: Broth microdilution MIC assay, partner ceftazidime;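 also: ceftazidime held fixed at 4 µg/mL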; assay type: cell-based; settings: Escherichia coli, read-out: MIC of Exemplary Compounds in presence of fixed β-lactams, Fixed CAZ, E. coli ESBL4 CTX-M-15
[3] = system: E. cloacae 144200 expressing Class C P99 AmpC; test: Broth microdilution MIC assay, partner ceftazidime;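 also: ceftazidime held fixed at 4 µg/mL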; assay type: cell-based; settings: Enterobacter cloacae, read-out: MIC of Exemplary Compounds in presence of fixed β-lactams, Fixed CAZ, E. cl. 144200 p99 AmpC
VIM-2 = biological target: T1, VIM-2 (Escherichia coli, UniProt Q5U7L7); test: β-Lactamase enzyme inhibition assay, VIM-2 (nitrocefin substrate); assay type: biochemical; settings: nitrocefin substrate 100 μM, 15 min preincubation at 37° C.; read-out: IC50, Class B VIM-2
T1 construct: made in house; host or cells: E. coli BL21(DE3)
Procedure: For Vim-2 metallo β-lactamase, the procedure was identical with the following exceptions, first the protein was not pH adjusted to pH 5 with 50 mM sodium acetate, second, the chromatography step was changed to a 5 ml Q sepharose anion exchange column pre-equilibrated with 50 mM Hepes pH 7.5, and elution of the protein was achieved by a linear gradient of NaCl (0-600 mM). Finally, the VIM-2 purification required a second run (3rd step) on the Q sepharose anion exchange column to achieve acceptable purity (>90%).
An equal volume of diluted enzyme stock was added, and the plates were incubated at 37° C. for 15 min. Nitrocefin was used as substrate for p99 AmpC, VIM-2 and OXA-1 and dispensed into each well at a final concentration of 100 μM. Absorbance at 486 nm was immediately monitored for 10 min using a Biotek Powerwave XS2 microplate spectrophotometer using the GEN5 softweare package (Biotek Instruments, Winooski Vt.). In an analogous fashion, imipenem was used as substrate for Kpc-2 and Cefotaxime was used for SHV-5, while changes in absorbance upon hydrolysis of the β-lactam ring were monitored at 300 nm and 260 nm respectively in UV-transparent 96-well microtiter assay plates. Maximum rates of hydrolysis were compared to those in control wells (without inhibitors), and percentages of enzyme inhibition were calculated for each concentration of inhibitor. The concentration of inhibitor needed to reduce the initial rate of hydrolysis of substrate by 50% (IC50) was calculated as the residual activity of β-lactamase at 486 nm using GraFit version 7 kinetics software package (Erithacus Software, Surrey, UK).
Using the methodology described above, examples of the current invention were evaluated for their ability to inhibit β-lactamase enzymes from all four Ambler classifications (A through D). […] NT=Not tested.

[4] = system: K. pneumoniae A-1797 expressing KPC-2 and VIM-4; test: Broth microdilution MIC assay, partner meropenem; assay type: cell-based; settings: Klebsiella pneumoniae, read-out: MIC of Exemplary Compounds in presence of fixed β-lactams, Fixed Mero, K.P. A-1797 KPC-2 VIM-4
[5] = system: S. aureus MSSA-7 producing penicillinase PC-1; test: Broth microdilution MIC assay, partner piperacillin; assay type: cell-based; settings: Staphylococcus aureus, fixed piperacillin 4 μg/mL, read-out: MIC of Exemplary Compounds in presence of fixed β-lactams, Fixed Pip, S. aureus MSSA-7 PC-1
[6] = system: K. pneumoniae 156319 expressing KPC-3; test: Broth microdilution MIC assay, partner meropenem; assay type: cell-based; settings: Klebsiella pneumoniae, read-out: MIC of Exemplary Compounds in presence of fixed β-lactams, Fixed Mero, K.P. 156319 KPC-3

SMILES | MIC [1] | MIC [2] | MIC [3] | pIC50 (VIM-2) | MIC [4] | MIC [5] | MIC [6]
O=C(N[C@H]1Cc2cccc(C(=O)O)c2OB1O)c1ccc(-c2ccncc2)cc1 [Example 27, (R)-2-hydroxy-3-(4-(pyridin-4-yl)benzamido)-3,4-dihydro-2H-benzo[e][1,2]oxaborinine-8-carboxylic acid] | > 32 µg/mL | < 4 µg/mL | < 4 µg/mL | 5.00 to 6.00 | > 32 µg/mL | < 4 µg/mL | > 32 µg/mL
O=C(N[C@H]1Cc2cccc(C(=O)O)c2OB1O)c1ccc2ncccc2c1 [Example 28, (R)-2-hydroxy-3-(quinoline-6-carboxamido)-3,4-dihydro-2H-benzo[e][1,2]oxaborinine-8-carboxylic acid] | > 32 µg/mL | < 4 µg/mL | < 4 µg/mL | 5.00 to 6.00 | 8 to 32 µg/mL | < 4 µg/mL | < 4 µg/mL
O=C(N[C@H]1Cc2cccc(C(=O)O)c2OB1O)c1ccc2nccnc2c1 [Example 29, (R)-2-hydroxy-3-(quinoxaline-6-carboxamido)-3,4-dihydro-2H-benzo[e][1,2]oxaborinine-8-carboxylic acid] | > 32 µg/mL | < 4 µg/mL | < 4 µg/mL | 5.00 to 6.00 | > 32 µg/mL | < 4 µg/mL | < 4 µg/mL
O=C(N[C@H]1Cc2cccc(C(=O)O)c2OB1O)c1ccc2cc[nH]c2c1 [Example 30, (R)-2-hydroxy-3-(1H-indole-6-carboxamido)-3,4-dihydro-2H-benzo[e][1,2]oxaborinine-8-carboxylic acid] | < 4 µg/mL | < 4 µg/mL | < 4 µg/mL | 6.00 to 7.00 | 8 to 32 µg/mL | < 4 µg/mL | < 4 µg/mL
O=C(O)c1cccc2c1OB(O)[C@@H](NC(=O)c1cccc3cc[nH]c13)C2 [Example 31, (R)-2-hydroxy-3-(1H-indole-7-carboxamido)-3,4-dihydro-2H-benzo[e][1,2]oxaborinine-8-carboxylic acid] | 8 to 32 µg/mL | < 4 µg/mL | < 4 µg/mL | 5.00 to 6.00 | > 32 µg/mL | < 4 µg/mL | < 4 µg/mL
O=C(O)c1cccc2c1OB(O)[C@@H](NC(=O)c1cccc3[nH]ccc13)C2 [Example 32, (R)-2-Hydroxy-3-[(1H-indole-4-carbonyl)-amino]-3,4-dihydro-2H-benzo[e][1,2]oxaborinine-8-carboxylic acid] | < 4 µg/mL | < 4 µg/mL | < 4 µg/mL | 6.00 to 7.00 | > 32 µg/mL | < 4 µg/mL | < 4 µg/mL
O=C1Cc2cc(C(=O)N[C@H]3Cc4cccc(C(=O)O)c4OB3O)ccc2N1 [Example 33, (R)-2-Hydroxy-3-[(2-oxo-2,3-dihydro-1H-indole-5-carbonyl)-amino]-3,4-dihydro-2H-benzo[e][1,2]oxaborinine-8-carboxylic acid] | < 4 µg/mL | < 4 µg/mL | < 4 µg/mL | 6.00 to 7.00 | 8 to 32 µg/mL | < 4 µg/mL | < 4 µg/mL
O=C(N[C@H]1Cc2cccc(C(=O)O)c2OB1O)c1ccc2nc[nH]c2c1 [Example 34, (R)-3-[(3H-Benzoimidazole-5-carbonyl)-amino]-2-hydroxy-3,4-dihydro-2H-benzo[e][1,2]oxaborinine-8-carboxylic acid] | < 4 µg/mL | < 4 µg/mL | < 4 µg/mL | 6.00 to 7.00 | 8 to 32 µg/mL | < 4 µg/mL | < 4 µg/mL
O=C(N[C@H]1Cc2cccc(C(=O)O)c2OB1O)c1cnc2[nH]ccc2c1 [Example 35, (R)-2-Hydroxy-3-[(1H-pyrrolo[2,3-b]pyridine-5-carbonyl)-amino]-3,4-dihydro-2H-benzo[e][1,2]oxaborinine-8-carboxylic acid] | < 4 µg/mL | < 4 µg/mL | < 4 µg/mL | 6.00 to 7.00 | > 32 µg/mL | < 4 µg/mL | < 4 µg/mL
